Assay results taken from BigSolDB 2.1.

Cc1cc(C(=O)O)ccc1[N+](=O)[O-]
Details | solubility (mole fraction)
in 1,4-dioxane, 283.15 K | 0.0407
in 1,4-dioxane, 285.65 K | 0.0428
in 1,4-dioxane, 288.15 K | 0.0448
in 1,4-dioxane, 290.65 K | 0.0469
in 1,4-dioxane, 293.15 K | 0.0493
in 1,4-dioxane, 295.65 K | 0.0519
in 1,4-dioxane, 298.15 K | 0.0545
in 1,4-dioxane, 300.65 K | 0.0571
in 1,4-dioxane, 303.15 K | 0.06
in 1,4-dioxane, 305.65 K | 0.0628
in 1,4-dioxane, 308.15 K | 0.0658
in 1,4-dioxane, 310.65 K | 0.0688
in 1,4-dioxane, 313.15 K | 0.0718
in 1,4-dioxane, 315.65 K | 0.0754
in 1,4-dioxane, 318.15 K | 0.0802
in DMF, 283.15 K | 0.0677
in DMF, 285.65 K | 0.0709
in DMF, 288.15 K | 0.0754
in DMF, 290.65 K | 0.0795
in DMF, 293.15 K | 0.0845
in DMF, 295.65 K | 0.0908
in DMF, 298.15 K | 0.0975
in DMF, 300.65 K | 0.104
in DMF, 303.15 K | 0.111
in DMF, 305.65 K | 0.118
in DMF, 308.15 K | 0.126
in DMF, 310.65 K | 0.135
in DMF, 313.15 K | 0.142
in DMF, 315.65 K | 0.152
in DMF, 318.15 K | 0.162
in NMP, 283.15 K | 0.0856
in NMP, 285.65 K | 0.0872
in NMP, 288.15 K | 0.09
in NMP, 290.65 K | 0.0933
in NMP, 293.15 K | 0.0965
in NMP, 295.65 K | 0.1
in NMP, 298.15 K | 0.105
in NMP, 300.65 K | 0.109
in NMP, 303.15 K | 0.113
in NMP, 305.65 K | 0.118
in NMP, 308.15 K | 0.123
in NMP, 310.65 K | 0.128
in NMP, 313.15 K | 0.133
in NMP, 315.65 K | 0.138
in NMP, 318.15 K | 0.145
in acetone, 283.15 K | 0.0204
in acetone, 285.65 K | 0.0212
in acetone, 288.15 K | 0.022
in acetone, 290.65 K | 0.0228
in acetone, 293.15 K | 0.0238
in acetone, 295.65 K | 0.0247
in acetone, 298.15 K | 0.026
in acetone, 300.65 K | 0.0273
in acetone, 303.15 K | 0.0285
in acetone, 305.65 K | 0.0299
in acetone, 308.15 K | 0.0311
in acetone, 310.65 K | 0.0325
in acetone, 313.15 K | 0.0338
in acetone, 315.65 K | 0.0353
in acetone, 318.15 K | 0.0372
in acetonitrile, 283.15 K | 0.00255
in acetonitrile, 285.65 K | 0.00276
in acetonitrile, 288.15 K | 0.00302
in acetonitrile, 290.65 K | 0.00328
in acetonitrile, 293.15 K | 0.00355
in acetonitrile, 295.65 K | 0.00382
in acetonitrile, 298.15 K | 0.00412
in acetonitrile, 300.65 K | 0.00438
in acetonitrile, 303.15 K | 0.00469
in acetonitrile, 305.65 K | 0.00498
in acetonitrile, 308.15 K | 0.00529
in acetonitrile, 310.65 K | 0.00564
in acetonitrile, 313.15 K | 0.00598
in acetonitrile, 315.65 K | 0.00638
in acetonitrile, 318.15 K | 0.00688
in ethanol, 283.15 K | 0.00751
in ethanol, 285.65 K | 0.0078
in ethanol, 288.15 K | 0.00818
in ethanol, 290.65 K | 0.00866
in ethanol, 293.15 K | 0.00915
in ethanol, 295.65 K | 0.00964
in ethanol, 298.15 K | 0.0102
in ethanol, 300.65 K | 0.0108
in ethanol, 303.15 K | 0.0113
in ethanol, 305.65 K | 0.0119
in ethanol, 308.15 K | 0.0125
in ethanol, 310.65 K | 0.0132
in ethanol, 313.15 K | 0.0138
in ethanol, 315.65 K | 0.0146
in ethanol, 318.15 K | 0.0155
in ethyl acetate, 283.15 K | 0.0106
in ethyl acetate, 285.65 K | 0.0111
in ethyl acetate, 288.15 K | 0.0116
in ethyl acetate, 290.65 K | 0.0123
in ethyl acetate, 293.15 K | 0.0127
in ethyl acetate, 295.65 K | 0.0134
in ethyl acetate, 298.15 K | 0.014
in ethyl acetate, 300.65 K | 0.0146
in ethyl acetate, 303.15 K | 0.0153
in ethyl acetate, 305.65 K | 0.0159
in ethyl acetate, 308.15 K | 0.0167
in ethyl acetate, 310.65 K | 0.0175
in ethyl acetate, 313.15 K | 0.0185
in ethyl acetate, 315.65 K | 0.0193
in ethyl acetate, 318.15 K | 0.0205
in isopropanol, 283.15 K | 0.00877
in isopropanol, 285.65 K | 0.00915
in isopropanol, 288.15 K | 0.00966
in isopropanol, 290.65 K | 0.0102
in isopropanol, 293.15 K | 0.0108
in isopropanol, 295.65 K | 0.0115
in isopropanol, 298.15 K | 0.0122
in isopropanol, 300.65 K | 0.0129
in isopropanol, 303.15 K | 0.0136
in isopropanol, 305.65 K | 0.0143
in isopropanol, 308.15 K | 0.0151
in isopropanol, 310.65 K | 0.016
in isopropanol, 313.15 K | 0.0169
in isopropanol, 315.65 K | 0.0181
in isopropanol, 318.15 K | 0.0192
in methanol, 283.15 K | 0.00606
in methanol, 285.65 K | 0.00664
in methanol, 288.15 K | 0.00734
in methanol, 290.65 K | 0.00809
in methanol, 293.15 K | 0.00879
in methanol, 295.65 K | 0.00956
in methanol, 298.15 K | 0.0104
in methanol, 300.65 K | 0.0111
in methanol, 303.15 K | 0.012
in methanol, 305.65 K | 0.0129
in methanol, 308.15 K | 0.0137
in methanol, 310.65 K | 0.0147
in methanol, 313.15 K | 0.0158
in methanol, 315.65 K | 0.0169
in methanol, 318.15 K | 0.0184
in n-butanol, 283.15 K | 0.00676
in n-butanol, 285.65 K | 0.00725
in n-butanol, 288.15 K | 0.00789
in n-butanol, 290.65 K | 0.00844
in n-butanol, 293.15 K | 0.00913
in n-butanol, 295.65 K | 0.00994
in n-butanol, 298.15 K | 0.0108
in n-butanol, 300.65 K | 0.0116
in n-butanol, 303.15 K | 0.0125
in n-butanol, 305.65 K | 0.0134
in n-butanol, 308.15 K | 0.0144
in n-butanol, 310.65 K | 0.0153
in n-butanol, 313.15 K | 0.0163
in n-butanol, 315.65 K | 0.0174
in n-butanol, 318.15 K | 0.0188
in n-propanol, 283.15 K | 0.00726
in n-propanol, 285.65 K | 0.00765
in n-propanol, 288.15 K | 0.00815
in n-propanol, 290.65 K | 0.00866
in n-propanol, 293.15 K | 0.00914
in n-propanol, 295.65 K | 0.00966
in n-propanol, 298.15 K | 0.0103
in n-propanol, 300.65 K | 0.0109
in n-propanol, 303.15 K | 0.0115
in n-propanol, 305.65 K | 0.0121
in n-propanol, 308.15 K | 0.0129
in n-propanol, 310.65 K | 0.0137
in n-propanol, 313.15 K | 0.0145
in n-propanol, 315.65 K | 0.0155
in n-propanol, 318.15 K | 0.0164
in toluene, 283.15 K | 0.0165
in toluene, 285.65 K | 0.0174
in toluene, 288.15 K | 0.0184
in toluene, 290.65 K | 0.0191
in toluene, 293.15 K | 0.0202
in toluene, 295.65 K | 0.0211
in toluene, 298.15 K | 0.0221
in toluene, 300.65 K | 0.0231
in toluene, 303.15 K | 0.0243
in toluene, 305.65 K | 0.0253
in toluene, 308.15 K | 0.0265
in toluene, 310.65 K | 0.0279
in toluene, 313.15 K | 0.0295
in toluene, 315.65 K | 0.0314
in toluene, 318.15 K | 0.0333
